Converted amounts (≈) assume the structure as drawn. “And” between values parts separate entries of the source, which are not always exact repeats. Equal entries are not always repeated. Where two headings read alike, the source gives them in different places.

Consider 5 molecules from US11802110B2, “2-amino-N-(arylsulfinyl)-acetamide compounds as inhibitors of bacterial aminoacyl-tRNA synthetase” (priority 2016, dated 2023).

In one data set the target is Escherichia Coli LeuRS (Escherichia coli (strain K12), UniProt P07813). Description: Study 1 - Isothermal titration calorimetry (ITC), separated diastereomers. It counts as binding. As to the method:
The dissociation constants (KD) of the separated diastereomers (V-i) and (V-ii) for binding to Escherichia Coli LeuRS were determined by isothermal titration calorimetry (ITC).
(§1) Escherichia coli BL21(DE3) cells transformed with plasmid pQE-60 containing the open-reading frame sequence of one targeted aaRS (i.e., LeuRS) were induced with 1 mM IPTG (isopropyl β-D-1-thiogalactopyranoside) for 3 hours at 37° C. Bacterial cells were harvested and lysed with 20 mM HEPES (4-(2-hydroxyethyl)-1-piperazinylethane-sulfonic acid) (pH 7.5), 300 mM NaCl, 15 mM imidazole and 1 mM DTT (1,4-dithio-D-threitol). The pathogenic aaRS was first purified by nickel affinity standard chromatography. The eluted protein was concentrated and then further purified by gel filtration using 50 mM HEPES (pH 7.5), 150 mM NaCl buffer.
ITC studies were carried out using a Microcal ITC200 instrument (GE Healthcare). […] The titrations were performed at 25° C. with 10-30 μM E. Coli LeuRS in 50 mM HEPES, 150 mM NaCl, pH 7.5 buffer containing 1% DMSO (v/v). The protein solution in the 200 μL sample cell was titrated with the inhibitor solution (diluted to 100-300 μM in the same buffer as the protein) using 1-2 μL injections every 140 seconds. All titrations were repeated at least three times. To correct for heats of dilution and mixing, the final baseline consisting of small peaks of identical size at the end of each experiment was subtracted. The experimental data were fitted to a theoretical titration curve (one site model) using MicroCal Origin 7 software.

Data set [1] relates to wild type E. Coli strain BW25113. Description: Study 3 - Antibacterial activity (EC50), dilution susceptibility test M07-A9. It is filed as cell-based, Escherichia coli. As to conditions: for EC50: Escherichia coli. As to the method: The antibacterial activity of the separated diastereomers (V-i) and (V-ii) was determined against wild type E. Coli strain BW25113.
The method described in “Methods for Dilution Antimicrobial Susceptibility Tests for Bacteria that Grow Aerobically; Approved Standard—Ninth Edition” (M07-A9; Vol. 32, No. 2) was used.

For the next data set, the target named is E. Coli LeuRS (Escherichia coli (strain K12), UniProt P07813). Description: Study 2 - Isothermal titration calorimetry (ITC). It is filed as binding. As to conditions: 25° C., pH 7.5, mean ± SD. The method, then: as §1
Chain of E. Coli LeuRS (P07813 whole entry): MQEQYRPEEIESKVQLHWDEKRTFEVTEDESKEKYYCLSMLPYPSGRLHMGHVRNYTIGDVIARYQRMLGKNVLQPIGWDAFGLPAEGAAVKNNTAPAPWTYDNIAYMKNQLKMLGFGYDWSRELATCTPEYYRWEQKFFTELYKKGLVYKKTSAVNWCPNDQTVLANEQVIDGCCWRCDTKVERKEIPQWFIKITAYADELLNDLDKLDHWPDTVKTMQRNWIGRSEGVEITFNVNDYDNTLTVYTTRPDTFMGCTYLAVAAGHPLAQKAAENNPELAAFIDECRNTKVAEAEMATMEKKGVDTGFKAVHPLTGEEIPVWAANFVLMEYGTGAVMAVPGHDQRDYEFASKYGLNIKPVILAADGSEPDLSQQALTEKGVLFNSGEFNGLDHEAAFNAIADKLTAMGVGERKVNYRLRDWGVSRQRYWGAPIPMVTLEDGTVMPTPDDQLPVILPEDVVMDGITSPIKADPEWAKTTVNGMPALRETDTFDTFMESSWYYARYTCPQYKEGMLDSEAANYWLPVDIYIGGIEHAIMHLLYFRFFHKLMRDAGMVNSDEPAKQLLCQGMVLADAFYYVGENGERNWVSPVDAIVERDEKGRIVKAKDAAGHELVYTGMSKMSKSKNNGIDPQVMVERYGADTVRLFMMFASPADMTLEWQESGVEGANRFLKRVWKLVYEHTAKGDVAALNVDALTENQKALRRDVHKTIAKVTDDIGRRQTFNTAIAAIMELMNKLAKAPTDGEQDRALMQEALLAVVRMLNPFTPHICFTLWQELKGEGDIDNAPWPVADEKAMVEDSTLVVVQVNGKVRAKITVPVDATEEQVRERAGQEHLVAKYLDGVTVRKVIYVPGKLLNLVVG
ITC studies were carried out using a Microcal ITC200 instrument (GE Healthcare). Protein concentration was determined by spectrophotometry by measuring the absorbance at 280 nm using a theoretical molar extinction coefficient of 169,140 M^−1cm^−1. Ligand stock solutions were prepared in DMSO at 62.5 mM concentration. The titrations were performed at 25° C. with 7.5-100 μM E. Coli LeuRS in 50 mM HEPES, 150 mM NaCl, pH 7.5 buffer containing 1% DMSO (v/v). The protein solution in the 280 μL sample cell was titrated with the inhibitor solution (diluted to 75-3000 μM in the same buffer as the protein) using 1-2 μL injections every 120-140 seconds. All titrations were repeated at least two times. To correct for heats of dilution and mixing, the final baseline consisting of small peaks of identical size at the end of each experiment was subtracted. The experimental data were fitted to a theoretical titration curve (one site model) using MicroCal Origin 7 SR4 software.
Note that Compounds R-4.1 and S-4.1 (in Table 15, below) correspond to Compounds V-i and V-ii (in Tables 13 and 14, above), respectively.
For orientation: ITC needs no label: the signal is the heat of the interaction.

The test system of data set [2] is Escherichia coli ATCC 25922 TolC deficient mutant (E. coli EFFLUX del). Description: microbe, parasite or virus in culture. It counts as cell-based. As to conditions: Escherichia coli, ATCC25922. A digest of the protocol: (§2)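 CLSI broth microdilution in Mueller-Hinton medium, compounds serially diluted across the plate. MIC taken as the first concentration without visible bacterial growth. A run counts only when standard antibiotics against the ATCC reference strains fall within the CLSI ranges.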

Data set [3] has as its system Klebsiella pneumoniae ATCC 700603. Description: Study 4 - MIC by broth micro-dilution (CLSI). It is filed as cell-based. As to conditions: Klebsiella pneumoniae, ATCC700603. A digest of the protocol:
as §2
Background: In broth dilution the organism is exposed to a series of concentrations in liquid medium.

The subject of data set [4] is Acinetobacter baumannii B1931 clinical isolate. Description: Study 4 - MIC by broth micro-dilution (CLSI). The conditions noted are these: Acinetobacter baumannii. It counts as cell-based. An outline of the steps: as §2
In data set [5] the test system is Haemophilus influenzae ATCC 49247. Description: Study 4 - MIC by broth micro-dilution (CLSI). It counts as cell-based. As to conditions: Haemophilus influenzae, ATCC49247; G = H. influenzae ATCC 49247; read-out: MIC. An outline of the steps:
as §2

The subject of data set [6] is Enterobacter cloacae B1966 clinical isolate. Description: Study 4 - MIC by broth micro-dilution (CLSI). It counts as cell-based. As to conditions: Enterobacter cloacae. A digest of the protocol: as §2
The test system of data set [7] is Escherichia coli ATCC 25922. Description: Study 4 - MIC by broth micro-dilution (CLSI). It is filed as cell-based. The conditions noted are these: Escherichia coli, ATCC25922. A digest of the protocol: as §2
Data set [8] deals with Pseudomonas aeruginosa ATCC 27853. Description: Study 4 - MIC by broth micro-dilution (CLSI). It is filed as cell-based. As to conditions: Pseudomonas aeruginosa, ATCC27853. A digest of the protocol:
as §2

Data set [9] is described as follows: Human cell viability (cytotoxicity), ATP levels by CellTiter-Glo. It counts as cell-based. The conditions noted are these: HepG2 cells (ATCC HB-8065), 24 hours incubation, read-out: IC50 (μg/mL), Cytotoxicity in HepG2 ATCC HB-8065 Cell Line. An outline of the steps:
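HepG2 cells were grown for two days and then exposed to compounds in duplicate for 24 hours, with 1.28% final DMSO. Viability was read as ATP by CellTiter-Glo luminescence relative to DMSO-only wells. IC50 values are in μg/mL.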

[10] abbreviates: ITC, 25° C., pH 7.5, single replicates 1-3.
The mark [11] stands for this setting: ITC, 25° C., pH 7.5, single replicates 1-3, read-out: K (binding constant) (converted).
The mark [12] stands for this setting: read-out: KD (dissociation constant).

Chain of Escherichia Coli LeuRS (P07813 whole entry): as above

The term EC50 denotes the concentration that produces a half-maximal response. Low values mean an effect from little substance, high ones a need for much substance. As for `CC(C)C[C@H](N)C(=O)N[S@+]([O-])c1ccccc1` (single isomer, unassigned) [V-i], the “binding to E. coli LeuRS (in words)” value at Escherichia Coli LeuRS (ITC) is listed as “binds with high affinity”. Besides, at Escherichia Coli LeuRS (setting [10]), the “K (binding constant)” value is 2.4e+08 M⁻¹; the “ΔS” value was −7.96 cal/mol/° C. and −12.5 cal/mol/° C. and −7.03 cal/mol/° C. Moreover, the Kd at Escherichia Coli LeuRS (setting [11]) was 6.49 nM and 3.14 nM. Also, on Escherichia Coli LeuRS (setting [12]), the Kd was 4.6 nM. In data set [1], the “antibacterial activity (in words)” value was “potent antibacterial agent” and the response was half-maximal at 4 µg/mL (≈ 15.7 µM) (EC50).
As to `CC(C)C[C@H](N)C(=O)N[S@@+]([O-])c1ccccc1` (single isomer, unassigned) [V-ii], on Escherichia Coli LeuRS (setting [10]), the “K (binding constant)” value is 83500 M⁻¹ and 77000 M⁻¹; the “ΔH” value was -5.69 kcal/mol and -5.899 kcal/mol and -6.2 kcal/mol; the “ΔS” value was “+3.44 cal/mol/° C. and +2.28 cal/mol/° C. and +1.56 cal/mol/° C”. The Kd at Escherichia Coli LeuRS (setting [11]) was 15000 nM. In addition, the Kd at Escherichia Coli LeuRS (setting [12]) is 13000 nM. In data set [1], this molecule had an EC50 greater than 128 µg/mL.
`CC(C)CC(N)C(=O)N[S+]([O-])c1cccc(F)c1F` (stereo not shown) [4.34] yielded a Kd on E. Coli LeuRS of 288 ± 42.9 nM. The molecule also had a ΔG on E. Coli LeuRS of -8.93 ± 0.08 kcal/mol. The molecule also yielded a ΔH on E. Coli LeuRS of -9.90 ± 0.40 kcal/mol. The MIC was 0.25 µg/mL (≈ 0.861 µM) in data set [2]; 1 µg/mL (≈ 3.44 µM) in data set [3]; 2 µg/mL (≈ 6.89 µM) in data set [4]; 4 µg/mL (≈ 13.8 µM) in data set [5]; 1 µg/mL (≈ 3.44 µM) in [6]; 0.5 µg/mL (≈ 1.72 µM) in data set [7]. In [8], this molecule displayed an MIC of 32 µg/mL (≈ 110 µM). In addition, the IC50 at 24 h in data set [9] is greater than 64 µg/mL.
`CC(C)CC(N)C(=O)N[S+]([O-])c1cc(F)cc(F)c1` (stereo not shown) [4.35]: the Kd at E. Coli LeuRS worked out at 16.4 ± 2.72 nM. The same molecule displayed a ΔG at E. Coli LeuRS of -10.63 ± 0.10 kcal/mol. The molecule also returned a ΔH at E. Coli LeuRS of -9.97 ± 0.10 kcal/mol. Further, the MIC is 16 µg/mL (≈ 55.1 µM) in data set [2]; greater than 64 µg/mL in [3]; greater than 64 µg/mL in data set [4]; greater than 64 µg/mL in data set [5]; 64 µg/mL (≈ 220 µM) in data set [6]; 16 µg/mL (≈ 55.1 µM) in [7]. For the same molecule, the MIC in data set [8] is greater than 64 µg/mL. Further, the IC50 at 24 h in [9] was greater than 64 µg/mL.
On to `CC(C)C[C@H](N)C(=O)N[S@+]([O-])c1cccc(Cl)c1` [R-4.12], for which the Kd at E. Coli LeuRS was 1.48 ± 0.08 nM. This molecule registered a ΔG on E. Coli LeuRS of -11.96 ± 0.12 kcal/mol. On E. Coli LeuRS, this molecule came in with a ΔH of -10.75 ± 1.06 kcal/mol. Moreover, the MIC came out at 2 µg/mL (≈ 6.93 µM) in data set [2]; 32 µg/mL (≈ 111 µM) in [3]; 32 µg/mL (≈ 111 µM) in data set [4]; 8 µg/mL (≈ 27.7 µM) in data set [5]; 8 µg/mL (≈ 27.7 µM) in data set [6]; 2 µg/mL (≈ 6.93 µM) in data set [7]. For the same molecule, the MIC in data set [8] was greater than 64 µg/mL. In [9], the IC50 at 24 h was greater than 64 µg/mL.
